Data set [1] has as its target Acetylcholinesterase (AChE) (Electrophorus electricus, UniProt O42275). In words: biochemical. As to conditions: Ellman's method, triplicate; read-out: Acetylcholinesterase (AChE) IC50 ± SEM. The procedure:
(§1) Modified Ellman’s method was adopted to investigate the inhibitory potential of newly synthesized compounds against cholinesterase enzymes. The assay protocol involved 96-well plates (100 μL per well). Each well contained 20 μL of assay buffer solution, 10 μL of test sample, and 10 μL of 0.5 U/mg of AChE (for AChE inhibition assay) or 10 μL of 3.4 U/mg of BChE (for BChE inhibition assay). This mixture was incubated at 25 °C for 10 min followed by the addition of substrate (10 μL). For AChE inhibition assay, acetylthiocholine iodide (ATCI, 1 mM) while for BChE assay, butyrylthiocholine chloride (BTCCl, 1 mM), was added. This mixture was incubated for 15 min at 37 °C. Ellman reagent (5,5′-dithio-bis(2-nitrobenzoic acid), DTNB, 3 mM) was added. […] Blank assay was also performed. All the analyses were performed in triplicate. IC50 values were also calculated for the synthesized compounds in GraphPad prism 5.0. using nonlinear regression method.
(In general: In Ellman's method for cholinesterases, released thiocholine reacts with DTNB.)

The target in data set [2] is Butyrylcholinesterase (BChE) (Equus caballus, UniProt P81908). The experiment in a line: biochemical. As to conditions: Ellman's method, triplicate; read-out: Butyrylcholinesterse (BChE) IC50 ± SEM. On the procedure:
as §1

Data set [3] can be described thus: In vitro cytotoxicity, MTT assay. The class given is cell-based. The following applies: human, HepG2 cells, 24 h, control = 100, read-out: Cell Viability; for viability at 24 h, 50 μg/mL: HepG2, 50 μg/mL; for viability at 24 h, 100 μg/mL: HepG2, 100 μg/mL; for viability at 24 h, 200 μg/mL: HepG2, 200 μg/mL; for viability at 24 h, 500 μg/mL: HepG2, 500 μg/mL; for viability at 24 h, 1000 μg/mL: HepG2, 1000 μg/mL. The procedure:
(§2) HepG2 cell line was obtained from the cell culture laboratory established in The University of Lahore. These cell lines were preserved in cryo vials present in liquid nitrogen. Cryo vials were revived for further processing.
(§3) The cryo vials obtained from liquid nitrogen cylinder were thawed. Then HepG2 cells were cultured in the culturing flask in which DMEM-HG along with 10% fetal bovine serum (FBS), supplemented with […] (Sigma) and 100 U/mL streptomycin (Sigma) were added. Cultures were maintained in a humidified incubator supplied with 5% CO2 at 37 °C. Experiments were performed in triplicates. When cultured HepG2 cells achieved 70–80% confluence their subculturing was conducted. For splitting, the cells attached to the walls of the culturing flask were washed with 1× phosphate buffer saline (PBS) and incubated with 0.05% trypsin-EDTA until cells detached from the surface of culturing flask. The detachment of the cells was confirmed by observing the flask under the inverted microscope. A few drops of FBS were added to the flask and mixed well by stirring. The mixture was centrifuged at 2000 rpm for 5 min. After centrifugation the supernatant was removed, and pellet was resuspended. HepG2 cells were cultured onto 96-well plates for measurement of cell viability. Treatment was given for both compounds at a concentration of 0–1000 µg/mL for 24 h.
(§4) After 4 h formazan crystals were solubilized with 10% sodium dodecylsulphate (SDS) (Invitrogen Inc.) and absorbance was taken at 570 nm. Percentage viability was calculated according to the following formula:% Viable cells = ((abs sample − abs blank) / (abs control − abs blank)) × 100 (1) where abs stands for absorbance.

In another data set the test system is HepG2 cells. The experiment in a line: In vitro cytotoxicity, MTT assay. The class given is cell-based. As to conditions: HepG2, MTT, 0–1000 µg/mL, 24 h. The procedure: as §2, §3, §4
In general terms: Tetrazolium assays rely on reduction of a dye to a coloured formazan, in cell work by metabolically active cells.

Sequence of Butyrylcholinesterase (BChE) (P81908 whole entry): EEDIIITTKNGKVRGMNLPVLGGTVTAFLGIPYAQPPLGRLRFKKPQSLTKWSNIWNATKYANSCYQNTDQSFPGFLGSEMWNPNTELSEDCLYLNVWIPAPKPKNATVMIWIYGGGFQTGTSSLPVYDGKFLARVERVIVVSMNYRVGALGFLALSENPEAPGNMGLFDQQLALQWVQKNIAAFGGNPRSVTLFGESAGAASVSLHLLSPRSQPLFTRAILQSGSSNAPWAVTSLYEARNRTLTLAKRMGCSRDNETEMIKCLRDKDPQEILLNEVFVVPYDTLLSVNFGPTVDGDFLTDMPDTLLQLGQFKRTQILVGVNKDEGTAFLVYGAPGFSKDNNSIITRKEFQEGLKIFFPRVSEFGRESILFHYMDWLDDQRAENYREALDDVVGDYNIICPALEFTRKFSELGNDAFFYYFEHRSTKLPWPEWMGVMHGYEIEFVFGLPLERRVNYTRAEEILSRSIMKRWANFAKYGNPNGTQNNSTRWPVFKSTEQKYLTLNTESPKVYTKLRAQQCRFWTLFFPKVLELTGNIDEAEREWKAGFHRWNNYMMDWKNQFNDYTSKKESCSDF
Sequence of Acetylcholinesterase (AChE) (O42275 24-633): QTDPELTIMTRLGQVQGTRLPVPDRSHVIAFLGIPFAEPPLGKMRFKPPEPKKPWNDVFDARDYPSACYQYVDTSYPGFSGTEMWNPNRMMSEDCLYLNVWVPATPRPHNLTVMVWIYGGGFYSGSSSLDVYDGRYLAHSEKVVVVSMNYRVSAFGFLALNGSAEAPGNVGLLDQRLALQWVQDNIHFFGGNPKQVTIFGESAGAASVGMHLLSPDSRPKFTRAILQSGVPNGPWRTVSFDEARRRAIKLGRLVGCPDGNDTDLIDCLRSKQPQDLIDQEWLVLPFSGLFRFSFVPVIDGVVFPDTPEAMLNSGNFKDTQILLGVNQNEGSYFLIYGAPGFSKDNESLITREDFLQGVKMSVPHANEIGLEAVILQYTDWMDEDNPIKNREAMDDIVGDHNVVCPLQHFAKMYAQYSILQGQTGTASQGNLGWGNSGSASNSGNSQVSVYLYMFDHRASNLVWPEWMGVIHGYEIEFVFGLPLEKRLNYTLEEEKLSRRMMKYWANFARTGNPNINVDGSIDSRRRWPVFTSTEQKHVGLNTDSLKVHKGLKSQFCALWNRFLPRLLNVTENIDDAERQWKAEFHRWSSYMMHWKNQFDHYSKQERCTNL

With `Cc1cccc2cc(C=NNC(=S)NCc3ccccc3)c(N3CCCCC3)nc12` [Compound 6l, N-Benzyl-2-((8-methyl-2-(piperidin-1-yl)quinolin-3-yl)methylene)hydrazinecarbothioamide], in data set [1], the IC50 came out at 57.25 ± 0.03 µM. Further, the IC50 in data set [2] came to 41 ± 0.89 µM. Besides, in data set [3], the viability at 24 h, 50 μg/mL was 103%; the viability at 24 h, 100 μg/mL was 105%; the viability at 24 h, 200 μg/mL amounted to 107%; the viability at 24 h, 500 μg/mL stood at 138%. Also, the viability at 24 h, 1000 μg/mL in data set [3] was determined as 157%. Further, the Status result in the data set on HepG2 cells is “Proliferative”.

For the compound `Cc1cccc2cc(C=NNC(=S)NCCN3CCOCC3)c(N3CCCCC3)nc12` [Compound 6m, 2-((8-Methyl-2-(piperidin-1-yl)quinolin-3-yl)methylene)-N-(2-morpholinoethyl)hydrazine carbothioamide], in data set [1], the IC50 was 21 ± 2.3 µM. Besides, the IC50 in data set [2] is 35.1 ± 0.77 µM. In addition, in data set [3], the viability at 24 h, 50 μg/mL turned out to be 97.9%; the viability at 24 h, 100 μg/mL amounted to 96.8%; the viability at 24 h, 200 μg/mL worked out at 95.3%; the viability at 24 h, 500 μg/mL came to 97.4%. In addition, in data set [3], the viability at 24 h, 1000 μg/mL was determined as 87.6%. In the data set on HepG2 cells, the Status result is listed as “Cytotoxic”.

Broadly, the IC50 is the midpoint of a concentration-inhibition curve. As a reminder, the viability is a read-out of living cells in per cent, often relative to untreated cells.

The values above are taken from PMC7866225, “Microwave-Assisted Synthesis of (Piperidin-1-yl)quinolin-3-yl)methylene)hydrazinecarbothioamides as Potent Inhibitors of Cholinesterases: A Biochemical and In Silico Approach” (Molecules, 2021).
